The assay deals with T1, human GR (Homo sapiens, UniProt P04150).
T1 sequence (P04150 1-777): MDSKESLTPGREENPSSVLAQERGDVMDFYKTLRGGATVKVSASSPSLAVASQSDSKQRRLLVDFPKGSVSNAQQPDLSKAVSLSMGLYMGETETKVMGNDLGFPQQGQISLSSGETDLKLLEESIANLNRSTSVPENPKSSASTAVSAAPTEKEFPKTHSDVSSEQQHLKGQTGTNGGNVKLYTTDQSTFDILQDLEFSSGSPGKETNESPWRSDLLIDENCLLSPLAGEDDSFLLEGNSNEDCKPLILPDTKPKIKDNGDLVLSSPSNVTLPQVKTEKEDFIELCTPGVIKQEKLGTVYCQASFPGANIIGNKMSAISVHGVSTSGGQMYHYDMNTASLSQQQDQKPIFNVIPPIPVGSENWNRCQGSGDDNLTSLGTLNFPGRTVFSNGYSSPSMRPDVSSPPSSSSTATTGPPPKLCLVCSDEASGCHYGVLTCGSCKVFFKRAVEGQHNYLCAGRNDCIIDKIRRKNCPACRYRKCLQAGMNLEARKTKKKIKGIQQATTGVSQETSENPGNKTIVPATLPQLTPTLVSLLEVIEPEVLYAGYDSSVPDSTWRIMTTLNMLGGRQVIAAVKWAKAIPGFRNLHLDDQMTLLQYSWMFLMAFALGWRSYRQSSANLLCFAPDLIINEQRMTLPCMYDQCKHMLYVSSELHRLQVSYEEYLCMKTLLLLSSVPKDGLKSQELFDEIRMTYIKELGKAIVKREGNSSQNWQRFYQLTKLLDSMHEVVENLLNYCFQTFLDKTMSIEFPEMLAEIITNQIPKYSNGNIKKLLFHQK
As to the kind of experiment: Transrepression Assay (GITAR), TNFα-β-lactamase reporter gene in U937 cells. The assay is classed as cell-based. Also on record: U937 cells contain an endogenous glucocorticoid receptor (GR); endogenous in cells; host or cells: U937 cells stably transfected with the TNF-α promoter/β-lactamase reporter only. A digest of the protocol: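 Reporter readout used CCF2-AM loading for 70–90 min at room temperature after overnight (~18 h, 37 °C) PMA (5 ng/ml final) and LPS (100 ng/ml final) stimulation of compound-treated (30–45 min) TNFα-β-lactamase U937 cells expressing native GR. Activity was normalised to 100 nM dexamethasone repression.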
In general terms: Reporter assays use an easily measured gene product as a stand-in for the process of interest.

Where [1] appears, read: U-937, 100 nM dexamethasone = 100% activity, read-out: maximal activity in the transrepression assay.

Data on 22 compounds can be found in US8119681B2, “2-[1-phenyl-5-hydroxy or methoxy-4alpha-methyl-hexahydrocyclopenta [ƒ]indazole-5-YL]ethyl phenyl derivatives as glucocorticoid receptor ligands” (Merck Sharp & Dohme Corp., priority 2006, dated 2012).

Read-outs that look alike come from different tables or passages of the source.

On to `C[C@]12Cc3cnn(-c4ccc(F)cc4)c3C=C1CC[C@@]2(O)CCc1cccc(F)c1NS(=O)(=O)CC(F)(F)F` [Example 116, 2,2,2-trifluoro-N-(2-fluoro-6-{2-[(4αS,5R)-1-(4-fluorophenyl)-5-hydroxy-4α-methyl-1,4,4α,5,6,7-hexahydrocyclopenta[f]indazol-5-yl]ethyl}phenyl)ethanesulfonamide], for which the Emax under setting [1] was 5 to 100%.
Still for that read-out and setting: in the case of `CN(C)S(=O)(=O)Nc1ccc(F)cc1CC[C@]1(O)CCC2=Cc3c(cnn3-c3ccc(F)cc3)C[C@@]21C` [Example 117, N′-(4-fluoro-2-{2-[(4αS,5R)-1-(4-fluorophenyl)-5-hydroxy-4α-methyl-1,4,4α,5,6,7-hexahydrocyclopenta[f]indazol-5-yl]ethyl}phenyl)-N,N-dimethylsulfamide] it was 5 to 100%; in that of `C[C@]12Cc3cnn(-c4ccc(F)cc4)c3C=C1CC[C@@]2(O)CCc1ccccc1NS(=O)(=O)CC(F)(F)F` [Example 118, 2,2,2-trifluoro-N-(2-{2-[(4αS,5R)-1-(4-fluorophenyl)-5-hydroxy-4α-methyl-1,4,4α,5,6,7-hexahydrocyclopenta[f]indazol-5-yl]ethyl}phenyl)ethanesulfonamide], 5 to 100%.
Still for that read-out and setting: for `C[C@]12Cc3cnn(-c4ccc(F)cc4)c3C=C1CC[C@@]2(O)CCc1cc(F)ccc1NS(=O)(=O)CC(F)(F)F` [Example 119, 2,2,2-trifluoro-N-(4-fluoro-2-{2-[(4αS,5R)-1-(4-fluorophenyl)-5-hydroxy-4α-methyl-1,4,4α,5,6,7-hexahydrocyclopenta[f]indazol-5-yl]ethyl}phenyl)ethanesulfonamide] the value was 5 to 100%; for `CC(C)S(=O)(=O)c1ccccc1CC[C@]1(O)CCC2=Cc3c(cnn3-c3ccc(F)cc3)C[C@@]21C` [Example 120, (4αS,5R)-1-(4-fluorophenyl)-5-{2-[2-(isopropylsulfonyl)phenyl]ethyl}-4α-methyl-1,4,4α,5,6,7-hexahydrocyclopenta[f]indazol-5-ol], 5 to 100%; for `COC(=O)Nc1ccccc1CC[C@]1(O)CCC2=Cc3c(cnn3-c3ccc(F)cc3)C[C@@]21C` [Example 121, methyl (2-{2-[(4αS,5R)-1-(4-fluorophenyl)-5-hydroxy-4α-methyl-1,4,4α,5,6,7-hexahydrocyclopenta[f]indazol-5-yl]ethyl}phenyl)carbamate], 5 to 100%.
The same measure, in the same setting: for `CCOC(=O)Nc1c(F)cccc1CC[C@]1(O)CCC2=Cc3c(cnn3-c3ccc(F)cc3)C[C@@]21C` [Example 122, ethyl (2-fluoro-6-{2-[(4αS,5R)-1-(4-fluorophenyl)-5-hydroxy-4α-methyl-1,4,4α,5,6,7-hexahydrocyclopenta[f]indazol-5-yl]ethyl}phenyl)carbamate] the value was 5 to 100%.
Turning to `COC(=O)Nc1c(F)cccc1CC[C@]1(O)CCC2=Cc3c(cnn3-c3ccc(F)cc3)C[C@@]21C` [Example 123, methyl (2-fluoro-6-{2-[(4αS,5R)-1-(4-fluorophenyl)-5-hydroxy-4α-methyl-1,4,4α,5,6,7-hexahydrocyclopenta[f]indazol-5-yl]ethyl}phenyl)carbamate], under setting [1], the Emax fell in the range of 5 to 100%.
Same read-out and setting: for `COC(=O)Nc1ccc(F)cc1CC[C@]1(O)CCC2=Cc3c(cnn3-c3ccc(F)cc3)C[C@@]21C` [Example 124, methyl (4-fluoro-6-{2-[(4αS,5R)-1-(4-fluorophenyl)-5-hydroxy-4α-methyl-1,4,4α,5,6,7-hexahydrocyclopenta[f]indazol-5-yl]ethyl}phenyl)carbamate] the value was 5 to 100%; for `CCOC(=O)Nc1ccc(F)cc1CC[C@]1(O)CCC2=Cc3c(cnn3-c3ccc(F)cc3)C[C@@]21C` [Example 125, ethyl (4-fluoro-2-{2-[(4αS,5R)-1-(4-fluorophenyl)-5-hydroxy-4α-methyl-1,4,4α,5,6,7-hexahydrocyclopenta[f]indazol-5-yl]ethyl}phenyl)carbamate], 5 to 100%; for `C[C@]12Cc3cnn(-c4ccc(F)cc4)c3C=C1CC[C@@]2(O)CCc1cccc(F)c1NC(=O)C(F)(F)F` [Example 126, 2,2,2-trifluoro-N-(2-fluoro-6-{2-[(4αS,5R)-1-(4-fluorophenyl)-5-hydroxy-4α-methyl-1,4,4α,5,6,7-hexahydrocyclopenta[f]indazol-5-yl]ethyl}phenyl)acetamide], 5 to 100%.
Same read-out and setting: for `C[C@]12Cc3cnn(-c4ccc(F)cc4)c3C=C1CC[C@@]2(O)CCc1ccccc1NC(=O)C(F)(F)F` [Example 127, 2,2,2-trifluoro-N-(2-{2-[(4αS,5R)-1-(4-fluorophenyl)-5-hydroxy-4α-methyl-1,4,4α,5,6,7-hexahydrocyclopenta[f]indazol-5-yl]ethyl}phenyl)acetamide] the value was 5 to 100%; for `CC(=O)Nc1c(F)cccc1CC[C@]1(O)CCC2=Cc3c(cnn3-c3ccc(F)cc3)C[C@@]21C` [Example 128, N-(2-fluoro-6-{2-[(4αS,5R)-1-(4-fluorophenyl)-5-hydroxy-4α-methyl-1,4,4α,5,6,7-hexahydrocyclopenta[f]indazol-5-yl]ethyl}phenyl)acetamide], 5 to 100%; for `CC(C)NC(=O)Nc1ccccc1CC[C@]1(O)CCC2=Cc3c(cnn3-c3ccc(F)cc3)C[C@@]21C` [Example 129, N-(2-{2-[(4αS,5R)-1-(4-fluorophenyl)-5-hydroxy-4α-methyl-1,4,4α,5,6,7-hexahydrocyclopenta[f]indazol-5-yl]ethyl}phenyl)-N′-isopropylurea], 5 to 100%.
On to `CC(C)NC(=O)Nc1c(F)cccc1CC[C@]1(O)CCC2=Cc3c(cnn3-c3ccc(F)cc3)C[C@@]21C` [Example 130, N-(2-fluoro-6-{2-[(4αS,5R)-1-(4-fluorophenyl)-5-hydroxy-4α-methyl-1,4,4α,5,6,7-hexahydrocyclopenta[f]indazol-5-yl]ethyl}phenyl)-N′-isopropylurea], for which the Emax under setting [1] is 5 to 100%.
Still for that read-out and setting: in the case of `CCNC(=O)Nc1ccc(F)cc1CC[C@]1(O)CCC2=Cc3c(cnn3-c3ccc(F)cc3)C[C@@]21C` [Example 131, N-ethyl-N′-(4-fluoro-2-{2-[(4αS,5R)-1-(4-fluorophenyl)-5-hydroxy-4α-methyl-1,4,4α,5,6,7-hexahydrocyclopenta[f]indazol-5-yl]ethyl}phenyl)urea] it was 5 to 100%; in that of `CCNC(=O)Nc1c(F)cccc1CC[C@]1(O)CCC2=Cc3c(cnn3-c3ccc(F)cc3)C[C@@]21C` [Example 132, N-ethyl-N′-(2-fluoro-6-{2-[(4αS,5R)-1-(4-fluorophenyl)-5-hydroxy-4α-methyl-1,4,4α,5,6,7-hexahydrocyclopenta[f]indazol-5-yl]ethyl}phenyl)urea], 5 to 100%; in that of `CC(C)NC(=O)Nc1ccc(F)cc1CC[C@]1(O)CCC2=Cc3c(cnn3-c3ccc(F)cc3)C[C@@]21C` [Example 133, N-(4-fluoro-2-{2-[(4αS,5R)-1-(4-fluorophenyl)-5-hydroxy-4α-methyl-1,4,4α,5,6,7-hexahydrocyclopenta[f]indazol-5-yl]ethyl}phenyl)-N′-isopropylurea], 5 to 100%.
The same measure, in the same setting: for `COC(=O)Oc1ccccc1CC[C@]1(O)CCC2=Cc3c(cnn3-c3ccc(F)cc3)C[C@@]21C` [Example 135, 2-{2-[(4αS,5R)-1-(4-fluorophenyl)-5-hydroxy-4α-methyl-1,4,4α,5,6,7-hexahydrocyclopenta[f]indazol-5-yl]ethyl}phenyl methyl carbonate] the value was 5 to 100%.
Regarding `CC(C)NC(=O)Oc1ccccc1CC[C@]1(O)CCC2=Cc3c(cnn3-c3ccc(F)cc3)C[C@@]21C` [Example 136, 2-{2-[(4αS,5R)-1-(4-fluorophenyl)-5-hydroxy-4α-methyl-1,4,4α,5,6,7-hexahydrocyclopenta[f]indazol-5-yl]ethyl}phenyl isopropylcarbamate], the Emax (U-937, read-out: maximal activity in the transrepression assay) was in the range of 5 to 100%.
Turning to `CCNS(=O)(=O)c1ccccc1CC[C@]1(O)CCC2=Cc3c(cnn3-c3ccc(F)cc3)C[C@@]21C` [Example 137, N-ethyl-2-{2-[(4αS,5R)-1-(4-fluorophenyl)-5-hydroxy-4α-methyl-1,4,4α,5,6,7-hexahydrocyclopenta[f]indazol-5-yl]ethyl}benzenesulfonamide], the Emax under setting [1] lay in the range of 5 to 100%.
`CNS(=O)(=O)c1ccccc1CC[C@]1(O)CCC2=Cc3c(cnn3-c3ccc(F)cc3)C[C@@]21C` [Example 139, 2-{2-[(4αS,5R)-1-(4-fluorophenyl)-5-hydroxy-4α-methyl-1,4,4α,5,6,7-hexahydrocyclopenta[f]indazol-5-yl]ethyl}-N-methylbenzenesulfonamide]: the Emax under setting [1] lay within 5 to 100%.
